This note sets out measurements from patent publication US10894788B2, “Inhibitors of cyclin-dependent kinases” (Kinnate Biopharma Inc., priority 2018, dated 2021).

Bounds are passed on as bounds.

The first assay deals with CDK12 wt/CycK (Homo sapiens (Human), UniProt Q9NYV4). Kind of assay: Radiometric protein kinase assay (33PanQinase Activity Assay), Assay Condition A (thiol containing conditions). It is filed as biochemical.
CDK12 wt/CycK, sequence (Q9NYV4 whole entry): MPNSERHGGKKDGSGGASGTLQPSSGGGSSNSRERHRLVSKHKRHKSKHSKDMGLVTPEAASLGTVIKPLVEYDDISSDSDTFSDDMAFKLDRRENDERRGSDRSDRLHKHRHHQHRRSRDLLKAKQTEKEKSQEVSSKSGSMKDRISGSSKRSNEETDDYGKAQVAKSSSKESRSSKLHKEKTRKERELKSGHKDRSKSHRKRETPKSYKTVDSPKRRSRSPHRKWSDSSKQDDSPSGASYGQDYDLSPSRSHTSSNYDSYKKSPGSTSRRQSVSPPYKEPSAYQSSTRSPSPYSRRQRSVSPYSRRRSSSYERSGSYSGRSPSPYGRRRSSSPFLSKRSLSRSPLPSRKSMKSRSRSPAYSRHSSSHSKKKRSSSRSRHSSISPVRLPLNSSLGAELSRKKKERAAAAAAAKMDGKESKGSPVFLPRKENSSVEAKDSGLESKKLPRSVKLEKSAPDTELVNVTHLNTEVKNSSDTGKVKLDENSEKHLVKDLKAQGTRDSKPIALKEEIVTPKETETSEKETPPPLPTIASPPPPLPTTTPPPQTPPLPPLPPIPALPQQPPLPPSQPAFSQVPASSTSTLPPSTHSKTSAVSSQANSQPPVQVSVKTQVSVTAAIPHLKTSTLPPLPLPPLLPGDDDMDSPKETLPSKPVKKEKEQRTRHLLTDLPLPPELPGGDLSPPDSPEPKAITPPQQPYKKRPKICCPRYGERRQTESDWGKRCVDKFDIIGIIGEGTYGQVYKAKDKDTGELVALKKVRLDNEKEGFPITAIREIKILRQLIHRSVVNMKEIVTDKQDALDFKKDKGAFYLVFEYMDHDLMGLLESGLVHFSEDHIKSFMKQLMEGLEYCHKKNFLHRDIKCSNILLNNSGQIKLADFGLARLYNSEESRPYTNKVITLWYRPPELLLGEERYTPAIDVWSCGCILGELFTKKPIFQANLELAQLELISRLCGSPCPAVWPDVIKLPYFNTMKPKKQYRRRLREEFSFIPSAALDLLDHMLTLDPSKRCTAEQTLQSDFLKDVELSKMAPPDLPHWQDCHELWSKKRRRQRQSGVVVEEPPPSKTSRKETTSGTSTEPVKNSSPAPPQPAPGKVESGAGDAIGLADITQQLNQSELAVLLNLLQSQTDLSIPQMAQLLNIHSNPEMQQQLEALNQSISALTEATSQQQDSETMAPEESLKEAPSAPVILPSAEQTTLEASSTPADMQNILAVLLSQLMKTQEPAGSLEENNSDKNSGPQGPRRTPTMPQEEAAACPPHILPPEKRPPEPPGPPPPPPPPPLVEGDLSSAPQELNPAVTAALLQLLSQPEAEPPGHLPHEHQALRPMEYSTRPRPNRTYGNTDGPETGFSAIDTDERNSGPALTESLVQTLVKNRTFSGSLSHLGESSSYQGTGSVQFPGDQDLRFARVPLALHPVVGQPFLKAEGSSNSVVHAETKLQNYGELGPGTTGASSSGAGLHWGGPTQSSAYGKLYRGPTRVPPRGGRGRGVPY
CDK12 wt/CycK, sequence (O75909 whole entry partner): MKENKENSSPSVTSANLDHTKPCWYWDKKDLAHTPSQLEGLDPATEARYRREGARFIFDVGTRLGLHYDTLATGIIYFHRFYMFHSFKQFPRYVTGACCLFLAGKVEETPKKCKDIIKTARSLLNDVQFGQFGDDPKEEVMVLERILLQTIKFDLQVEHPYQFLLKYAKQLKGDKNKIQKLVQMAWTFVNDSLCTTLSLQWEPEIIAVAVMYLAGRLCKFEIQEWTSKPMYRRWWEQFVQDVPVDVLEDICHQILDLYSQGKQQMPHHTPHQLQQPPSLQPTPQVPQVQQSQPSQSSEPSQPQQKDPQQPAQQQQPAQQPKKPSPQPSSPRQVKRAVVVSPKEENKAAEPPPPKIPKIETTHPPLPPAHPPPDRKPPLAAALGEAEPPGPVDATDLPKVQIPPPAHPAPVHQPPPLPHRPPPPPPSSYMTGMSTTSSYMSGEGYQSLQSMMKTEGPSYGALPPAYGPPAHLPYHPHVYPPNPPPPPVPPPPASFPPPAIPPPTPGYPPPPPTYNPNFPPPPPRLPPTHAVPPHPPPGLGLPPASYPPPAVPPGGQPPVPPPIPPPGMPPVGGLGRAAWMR
Settings: not given
The procedure:
Example 1—Assay Condition A (Thiol Containing Conditions)
Objective: The IC50 profile of test compounds was determined using three protein kinases.
Test compounds: The compounds were provided as pre-weighed powders in vials. The compounds were dissolved to 1×10^−02M by adding DMSO. 100 μl of each of the resulting stock solutions were transferred into column 2 of four 96 well “master plates”.
Prior to testing, the 1×10^−02M stock solutions in column 2 of the master plates were subjected to a serial, semi-logarithmic dilution using 100% DMSO as a solvent. […] Column 1 and 7 were filled with 100% DMSO as controls. Subsequently, 2×10 μl from each well of the serial diluted copy plates were aliquoted with a 96 channel pipettor into two identical sets of “compound dilution plates”.
In the process, 90 μl H2O were added to each well of a set of compound dilution plates. To minimize potential precipitation, the H2O was added to each plate only a few minutes before the transfer of the compound solutions into the assay plates. Each plate was shaken thoroughly, resulting in a “compound dilution plate/10% DMSO”.
For the assays, 5 μl solution from each well of the compound dilution plates/10% DMSO were transferred into the assay plates. The final volume of the assay was 50 μl. All compounds were tested at 10 final assay concentrations in the range from 1×10^−04M to 3×10^−09M, in singlicate. The final DMSO concentration in the reaction cocktails was 1% in all cases.
Recombinant protein kinases: All protein kinases were expressed in Sf9 insect cells or in E. coli as recombinant GST-fusion proteins or His-tagged proteins, either as full-length or enzymatically active fragments. All kinases were produced from human cDNAs and purified by either GSH-affinity chromatography or immobilized metal. Affinity tags were removed from a number of kinases during purification. The purity of the protein kinases was examined by SDS-PAGE/Coomassie staining, the identity was checked by mass spectroscopy.
Protein kinase assay: A radiometric protein kinase assay (^33PanQinase® Activity Assay) was used for measuring the kinase activity of the three protein kinases. All kinase assays were performed in 96-well FlashPlates™ from PerkinElmer (Boston, Mass., USA) in a 50 μl reaction volume. The reaction cocktail was pipetted in four steps in the following order: • 20 μl of assay buffer (standard buffer) • 5 μl of ATP solution (in H2O) • 5 μl of test compound (in 10% DMSO) • 20 μl enzyme/substrate mix
The following amounts of enzyme and substrate were used per well:
The reaction cocktails were incubated at 30° C. for 60 minutes. The reaction was stopped with 50 μl of 2% (v/v) H3PO4, plates were aspirated and washed two times with 200 μl 0.9% (w/v) NaCl. Incorporation of ^33Pi was determined with a microplate scintillation counter (Microbeta, Wallac). All assays were performed with a BeckmanCoulter/SAGIAN™ Core System.
Evaluation of raw data: The median value of the counts in column 1 (n=8) of each assay plate was defined as “low control”. This value reflects unspecific binding of radioactivity to the plate in the absence of a protein kinase but in the presence of the substrate. The median value of the counts in column 7 of each assay plate (n=8) was taken as the “high control”, i.e. full activity in the absence of any inhibitor. The difference between high and low control was taken as 100% activity.
As part of the data evaluation the low control value from a particular plate was subtracted from the high control value as well as from all 80 “compound values” of the corresponding plate. The residual activity (in %) for each well of a particular plate was calculated by using the following formula: Res. Activity (%)=100×[(cpm of compound−low control)/(high control−low control)]
The residual activities for each concentration and the compound IC50 values were calculated using Quattro Workflow V3.1.1 (Quattro Research GmbH, Munich, Germany).
For the compound `[2H]C([2H])([2H])Oc1nc(N[C@@H]2CCN(C(=O)c3ccc(NC(=O)C#C)cc3)C2)ncc1Cl` [Example 154, (R)—N-(4-(3-((5-chloro-4-(trideuteromethoxy)pyrimidin-2-yl)amino)pyrrolidine-1-carbonyl)phenyl)propiolamide], the IC50 was < 100 nM.

Consider `C=CC(=O)Nc1ccc(C(=O)N2CC[C@@](C)(Nc3ncc(Cl)cn3)C2)cc1` [Example 109, (R)—N-(4-(3-((5-chloropyrimidin-2-yl)amino)-3-methylpyrrolidine-1-carbonyl)phenyl)acrylamide], for which the IC50 was in the range of 10000 to 30000 nM.

As for `C=CC(=O)Nc1ccc(C(=O)N2CC[C@@H](Nc3ncc(C#N)cn3)C2)cc1OCCN(C)C` [Example 166, (R)—N-(4-(3-((5-cyanopyrimidin-2-yl)amino)pyrrolidine-1-carbonyl)-2-(2-(dimethylamino)ethoxy)phenyl)acrylamide], the IC50 fell in the range of 100 to 1000 nM.

In the case of `C=CC(=O)Nc1ccc(C(=O)N2CC[C@@H](Nc3ncc(Cl)c(OCC)n3)C2)cc1OCCN(C)C` [Example 144, (R)—N-(4-(3-((5-chloro-4-ethoxypyrimidin-2-yl)amino)pyrrolidine-1-carbonyl)-2-(2-(dimethylamino)ethoxy)phenyl)acrylamide], the IC50 was < 100 nM.

The compound `C=CC(=O)Nc1ccc(C(=O)N2CC[C@@H](Nc3ncc(Cl)cn3)C2)cc1OCCN(C)C` [Example 112, (R)—N-(4-(3-((5-chloropyrimidin-2-yl)amino)pyrrolidine-1-carbonyl)-2-(2-(dimethylamino)ethoxy)phenyl)acrylamide] had an IC50 of 100 to 1000 nM.

The same assay, now with this note: thiol containing conditions (1.2 mM DTT), ATP 0.3 μM; read-out: CDK12 IC50 Condition A.
Take `COc1nc(N[C@@H]2CCN(C(=O)c3ccc(NC(=O)/C=C/CN4CC[C@@H](F)C4)cn3)C2)ncc1Cl` [Example 170, (E)-N-(6-((R)-3-((5-chloro-4-methoxypyrimidin-2-yl)amino)pyrrolidine-1-carbonyl)pyridin-3-yl)-4-((R)-3-fluoropyrrolidin-1-yl)but-2-enamide]: the IC50 is 100 to 1000 nM.

As to `[2H]c1nc(N[C@@H]2CCN(C(=O)c3ccc(NC(=O)C=C)cc3)C2)nc(OC([2H])([2H])[2H])c1Cl` [Example 138, (R)—N-(4-(3-((5-chloro-4-deutero-6-(trideuteromethoxy)pyrimidin-2-yl)amino)pyrrolidine-1-carbonyl)phenyl)acrylamide], the IC50 was < 100 nM.

In the case of `C#CC(=O)Nc1ccc(C(=O)N2CC[C@@H](Nc3ncc(Cl)cn3)C2)cc1` [Example 125, (R)—N-(4-(3-((5-chloropyrimidin-2-yl)amino)pyrrolidine-1-carbonyl)phenyl)propiolamide], the IC50 is < 100 nM.

As for `COc1nc(N[C@@H]2CCN(C(=O)c3ccc(NC(=O)/C=C/CN4CC[C@@H](F)C4)cc3)C2)ncc1Cl` [Example 167, (E)-N-(4-((R)-3-((5-chloro-4-methoxypyrimidin-2-yl)amino)pyrrolidine-1-carbonyl)phenyl)-4-((R)-3-fluoropyrrolidin-1-yl)but-2-enamide], the IC50 was < 100 nM.

With `C=CC(=O)Nc1ccc(C(=O)N2CC[C@@H](Nc3ncc(Br)cn3)C2)cc1O[C@@H]1CCN(C)C1` [Example 163, N-(4-((R)-3-((5-bromopyrimidin-2-yl)amino)pyrrolidine-1-carbonyl)-2-(((R)-1-methylpyrrolidin-3-yl)oxy)phenyl)acrylamide], the IC50 was < 100 nM.

On to `C=CC(=O)Nc1nc(C(=O)N2CC[C@@H](Nc3ncc(C(F)(F)F)cn3)C2)cs1` [Example 100, (R)—N-(4-(3-((5-(trifluoromethyl)pyrimidin-2-yl)amino)pyrrolidine-1-carbonyl)thiazol-2-yl)acrylamide], for which the IC50 lay within 100 to 1000 nM.

For the compound `O=C(c1cccc(N2C(=O)C=CC2=O)c1)N1CC[C@@H](Nc2ncc(Cl)cn2)C1` [Example 116, (R)-1-(3-(3-((5-chloropyrimidin-2-yl)amino)pyrrolidine-1-carbonyl)phenyl)-1H-pyrrole-2,5-dionefuran-2,5-dione], the IC50 was 1000 to 10000 nM.

Regarding `C=CC(=O)Nc1ccc(C(=O)N2CC[C@@H](Nc3ncc(CC(C)C)cn3)C2)cc1` [Example 107, (R)—N-(4-(3-((5-isobutylpyrimidin-2-yl)amino)pyrrolidine-1-carbonyl)phenyl)acrylamide], the IC50 fell in the range of 1000 to 10000 nM.

As to `C=CC(=O)Nc1ccc(C(=O)N2CC[C@@H](Nc3ncc(Br)cn3)C2)cc1O[C@H]1CCN(C)C1` [Example 164, N-(4-((R)-3-((5-bromopyrimidin-2-yl)amino)pyrrolidine-1-carbonyl)-2-(((S)-1-methylpyrrolidin-3-yl)oxy)phenyl)acrylamide], the IC50 was < 100 nM.

`C=CC(=O)Nc1ccc(C(=O)N2CC[C@@H](Nc3ncc(Cl)c(OCC)n3)C2)nc1` [Example 152, (R)—N-(6-(3-((5-chloro-4-ethoxypyrimidin-2-yl)amino)pyrrolidine-1-carbonyl)pyridin-3-yl)acrylamide]: the IC50 was < 100 nM.

With `COc1nc(N[C@@H]2CCN(C(=O)c3ccc(NC(=O)/C=C/CN4CC[C@H](F)C4)cc3)C2)ncc1Cl` [Example 169, (E)-N-(4-((R)-3-((5-chloro-4-methoxypyrimidin-2-yl)amino)pyrrolidine-1-carbonyl)phenyl)-4-((S)-3-fluoropyrrolidin-1-yl)but-2-enamide], the IC50 was < 100 nM.

For `C=CC(=O)N(C)c1ccc(C(=O)N2CC[C@@H](Nc3ncc(Br)cn3)C2)cc1` [Example 104, (R)—N-(4-(3-((5-bromopyrimidin-2-yl)amino)pyrrolidine-1-carbonyl)phenyl)-N-methylacrylamide], the IC50 was < 100 nM.

Regarding `C=CC(=O)Nc1ccc(C(=O)N2CC[C@@H](Nc3ncc(C#N)cn3)C2)cc1` [Example 148, (R)—N-(4-(3-((5-cyanopyrimidin-2-yl)amino)pyrrolidine-1-carbonyl)phenyl)acrylamide], the IC50 fell in the range of 100 to 1000 nM.

On to `C=CC(=O)Nc1ccc(C(=O)N2CC[C@@H](Nc3ncc(C#N)c(OC)n3)C2)cc1` [Example 160, (R)—N-(4-(3-((5-cyano-4-methoxypyrimidin-2-yl)amino)pyrrolidine-1-carbonyl)phenyl)acrylamide], for which the IC50 was 10000 to 30000 nM.

On to `COc1nc(N[C@@H]2CCN(C(=O)c3ccc(NC(=O)/C=C/CN4CC[C@H](F)C4)cn3)C2)ncc1Cl` [Example 171, (E)-N-(6-((R)-3-((5-chloro-4-methoxypyrimidin-2-yl)amino)pyrrolidine-1-carbonyl)pyridin-3-yl)-4-((S)-3-fluoropyrrolidin-1-yl)but-2-enamide], for which the IC50 was in the range of 100 to 1000 nM.

Turning to `COc1nc(N[C@@H]2CCN(C(=O)c3ccc(NC(=O)/C=C/CN4CC[C@@H](F)C4)nc3)C2)ncc1Cl` [Example 179, (E)-N-(5-((R)-3-((5-chloro-4-methoxypyrimidin-2-yl)amino)pyrrolidine-1-carbonyl)pyridin-2-yl)-4-((R)-3-fluoropyrrolidin-1-yl)but-2-enamide], the IC50 is 100 to 1000 nM.

For the compound `[2H]C([2H])([2H])Oc1nc(N[C@@H]2CCN(C(=O)c3cccc(N4C(=O)C=CC4=O)c3)C2)ncc1Cl` [Example 128, (R)-1-(3-(3-((5-chloro-4-(trideuteriomethoxy)pyrimidin-2-yl)amino)pyrrolidine-1-carbonyl)phenyl)-1H-pyrrole-2,5-dione], the IC50 was in the range of 1000 to 10000 nM.

On to `O=C(Nc1ccc(C(=O)N2CC[C@@H](Nc3ncc(Cl)cn3)C2)cc1)C1CO1` (stereo partly drawn) [Example 141, N-(4-((R)-3-((5-chloropyrimidin-2-yl)amino)pyrrolidine-1-carbonyl)phenyl)oxirane-2-carboxamide], for which the IC50 was 1000 to 10000 nM.

For the compound `C=CC(=O)N1CCc2ccc(C(=O)N3CC[C@@H](Nc4ncc(Cl)cn4)C3)cc21` [Example 136, (R)-1-(6-(3-((5-chloropyrimidin-2-yl)amino)pyrrolidine-1-carbonyl)indolin-1-yl)prop-2-en-1-one], the IC50 was 100 to 1000 nM.

In general, IC50 refers to the concentration that gives 50% inhibition.
